Results as given in US20170369474A1, “COMPOUNDS, COMPOSITIONS AND METHODS OF USE” (Aquinnah Pharmaceuticals, Inc., priority 2014, published 2017).
Like-named read-outs stand apart in the source and are kept apart here.

Tests used:
[1] = test system: TDP-43 aggregates in motor neurons generated from ALS patient-derived iPSCs; experiment: Reduction of insoluble TDP-43 levels (immunoblot); type: cell-based; conditions: 2 μM for 48 hours
Experimental: The cells were differentiated into motor neurons for 22 days, then treated with 2 μM of Compounds 100, 101, and Compound 7 for 48 hours. The cells were lysed and TDP-43 aggregate formation was detected by immunoblot.

[2] = test system: C. elegans expressing A315T hTDP-43; experiment: Neuroprotection of C. elegans; type: in vivo; conditions: 34.8 μM; A315T transgenic animals, second day of adulthood
Experimental: Age synchronized C. elegans were cultured with 34.8 μM Compound 100 and the effect on the animal's movement and motor neurons were investigated. FIGS. 2A-2C show a comparison between the crawling speed of WT and Tg nematodes expressing wt (FIG. 2A), human wt (FIG. 2B), and A315T hTDP-43 (FIG. 2C) on the second day of adulthood.

[3] = test system: TDP-43 inclusions in PC12 cells stably expressing wild type (WT) TDP-43-GFP; experiment: Dose response assay for TDP-43 inhibition; type: cell-based; conditions: Rattus norvegicus, PC-12
Experimental: Exemplary compounds of the invention were evaluated for efficacy in inhibiting TDP-43 inclusions using a dose response assay. Briefly, PC12 cells stably expressing wild type (WT) TDP-43-GFP were stressed with 15 μM to induce TDP-43 inclusions. The cells were then treated with exemplary compounds of the invention and the inhibitory effect on TDP-43 inclusions was observed using fluorescent microscopy. The ratio of cells with TDP-43 inclusions was calculated based on the total number of cells with detectable GFP expression. A 12-point dose response curve was generated, and the IC50 for each compound tested was determined.

[4] = test system: Embryonic mouse hippocampal neurons transduced with TDP-43 EGFP; experiment: Neuroprotection assay (total dendrite length); type: cell-based; conditions: compound at 10 times the IC50 value, treated DIV7, 9, 11; fixed DIV12
Experimental: CMF dissection buffer: 1× Hank's balanced salt solution (Ca—/Mg, 500 mL) and 10 mM HEPES, pH 7.25-7.3 (IM stock, 5 mL)
Plating media: MEM (Earle salts+/Glutamine, 95 mL), FBS (to 2.5%, 2.5 mL), Pen/Strep (1×, 1 mL), glutamine (1×, 1 mL), and D-glucose (0.6% w/v, 0.6 g)
Feeding media: neurobasal media (96 mL), B27 supplement (2 mL), Pen/Strep (1 mL), and glutamine (1 mL).
Embryonic mouse hippocampal neurons were cultured according to Kaech, S. and Banker, G. (2006) Nat Protoc 1:2406-2415 and dissected at […] from CD1 mice. Once all the hippocampi were removed, they were placed in a 15 mL conical Falcon tube on ice and brought to a final volume of 4.5 mL with CMF dissection buffer. 0.5 mL of a 2.5% trypsin-EDTA solution was then added, and the mixture was incubated at 37° C. for 15 min. […] Neurons were traced and analyzed using NeuronJ.
Results of the neuroprotection assay for exemplary compounds of the invention are summarized in Table 1, wherein A represents an average rescue total dendrite length of >150%; B represents an average rescue total dendrite length of 100-149%; C represents an average rescue total dendrite length of 50-99%; D represents an average rescue total dendrite length of 0-49%; E represents an average rescue total dendrite length of <0%; and ND signifies that the average rescue total dendrite length was not determined.

| IC50 ([3]; inhibition of TDP-43 inclusions, PC12 cells WT TDP-43-GFP, 12-point dose response, read-out: IC50) | Structure (SMILES) | Reduction of TDP-43 aggregates in the sarkosyl insoluble fraction [1] | Neuroprotective effect on motor neurons [2] | Average Additive Dendrite Length (%) [4] | IC50 [3] |
| --- | --- | --- | --- | --- | --- |
| 101 to 250 nM | Cc1ccc(Cl)cc1NS(=O)(=O)c1c(C(=O)N2CCCC2)c(C)n(C)c1C [Compound 100, N-(5-chloro-2-methylphenyl)-1,2,5-trimethyl-4-(pyrrolidine-1-carbonyl)-1H-pyrrole-3-sulfonamide] | reduced dimeric and multimeric TDP-43 aggregates | neuroprotective effect | B (B represents an average rescue total dendrite length of 100-149%) |  |
|  | CCc1cccc(C)c1NS(=O)(=O)c1c(C(=O)N2CCCC2)c(C)n(C)c1C [Compound 101, N-(2-ethyl-6-methylphenyl)-1,2,5-trimethyl-4-(pyrrolidine-1-carbonyl)-1H-pyrrole-3-sulfonamide] | reduced dimeric and multimeric TDP-43 aggregates |  | A (A represents an average rescue total dendrite length of >150%) | 101 to 250 nM |
